Test results taken from patent publication US20200392219A1, “EXTRACELLULAR VESICLES COMPRISING MEMBRANE-TETHERED TGF-BETA, COMPOSITIONS AND METHODS OF USE THEREOF” (TRUSTEES OF TUFTS COLLEGE, priority 2017, published 2020).

Legend:
[1] = test system: CD4+ T cells (ConA-stimulated PBMC); assay: ConA mitogen-induced CD4+ T cell proliferation in CFSE-stained PBMC (PBMC responder/suppression assay); assay type: cell-based, canine; details: for effect of co-added inhibitor on WJ-MSC EV mediated suppression of CD4+ T cell division: 10 μM TGF-βRI inhibitor, 50 μM ZM241385, 0.1 μg/ml neutralizing antibody
Method: Serum-free culture medium from canine Wharton's Jelly mesenchymal stem cells (WJ-MSC: CD44^+, CD90^+, CD34^−, CD45^−, MHCII^−, n=6 cell lines) was collected after 48 hours, and extracellular vesicles (WJ-EV) were isolated by differential centrifugation. WJ-EV output was assessed using single vesicle nanoparticle tracking analysis (NTA). CFSE-stained peripheral blood mononuclear cells (PBMC) were collected from healthy dogs (n=8), exposed to Concanavalin A mitogen (ConA; 5 μg/ml) and co-incubated with WJ-MSC (1:10) across transwell membrane (0.4 μm pore size) or with WJ-MSC EV (1:10^4)±10 μM SB431542 (TGFβR1 inhibitor) or TGF-β neutralizing (e.g., inhibiting) antibody (Ab) for 72 hours. Analysis of CFSE fluorescence using FlowJo (v7.6.5) yielded % CD4^+ cells that had undergone division (T-cell proliferation).
PBMC responder assay: Twelve healthy adult purpose-bread Beagle dogs (5 neutered males, 7 spayed females) housed at the Laboratory Animal Medicine department at the Cummings School of Veterinary Medicine at Tufts University served as blood donors under an approved protocol. […] or WJ-MSC were tested in triplicate against a minimum of 3 different PBMC donor cell samples (see Figure legends for ‘n’ of each experiment). Healthy status was confirmed by clinical examination, and hematological and serum biochemical testing within six months of blood sampling. All dogs were fasted for 12 hours prior to peripheral blood sampling. Peripheral blood samples were taken via jugular venipuncture using a 21 gauge needle, and blood was immediately placed into an EDTA collection tube and rotated 1-2 times gently. Blood was diluted 1:1 with cold PBS or centrifuged (1300×g, 10 min) prior to dilution 1:2 in PBS, followed by density-gradient centrifugation using Ficoll-Paque (density 1.077; GE Healthcare Life Sciences) to harvest peripheral blood mononuclear cells (PBMC). PBMC were washed in RPMI (Life Technologies) supplemented with 10% heat-inactivated fetal bovine serum (Gibco), […] (Life Technologies), 100 μM β-mercaptoethanol (Sigma-Aldrich), 10,000 U/ml penicillin-streptomycin, 2 mM L-glutamine (Life Technologies), and 2.2 mg/mL of sodium bicarbonate (Thermo Fisher Scientific) (complete RPMI, ‘cRPMI’). For mitogen induced lymphocytes proliferation assays, PBMC were suspended in 1 ml cRPMI and 0.5 μof 10 mM carboxyfluorescein succinimidyl ester (CFSE, Thermo Fisher Scientific) and were incubated (10 min). For initial characterization of WJ-MSC effects on responder PBMC, PBMC were plated on a 24-well plate on the top of a 0.4 μm Transwell (Corning) across from the WJ-MSC in a 10:1 ratio (PBMC:MSC) in a total volume of 1 ml medium (n=3 technical replicates/sample). All plates were incubated at 37° C. in the dark for 72 hours prior to analysis.
Dose-responses of TV MSC-EV: To investigate the dose response of PBMC to WJ-MSC EV, the […] were plated on a 96-well plate in cRPMI with addition of 1 mM ATP, with or without 5 μg/ml Concanavalin A (ConA, Sigma-Aldrich). Responder PBMC were incubated with WJ-MSC EV in a total volume of 200 μL medium (n=3 technical replicates per sample). PBMC were incubated with WJ-MSC EV in a 1:10^2, 1:10^3, or 1:10^4 (PBMC:EV) ratio. After 72 hours of incubation, the PBMC were collected and surface stained for CD4 (rat anti-canine CD4-Alexa 647, clone YKIX302.9, AbD Serotec). Cells were stained for 30 minutes, washed twice with cold PBS and 5% FBS, and resuspended in 200 μl PBS and 5% FBS with 5 μl 7AAD (Becton Dickinson) for analysis by flow cytometry (Accuri C6, Becton Dickinson). The effect of WJ-MSC or WJ-MSC EV on CD4-positive (CD4^+) T cell (i.e., T helper cell) proliferation (percentage of cells proliferating, number of divisions for proliferating cells) was measured by evaluating CFSE fluorescence utilizing the FlowJo® proliferation platform (FlowJo, V10, Ashland, Oreg.) after gating on the viable CD4^+ lymphocyte population. […]

[2] = test system: WJ-MSC; assay: EV (exosome) output from WJ-MSC under GW4869, by nanoparticle tracking analysis; assay type: cell-based, canine
Method: Particle size distribution using nanoparticle tracking analysis (NTA): Samples were analyzed using a NanoSight N300 unit (Malvern) equipped with a 488 nm (blue) laser module and Nanoparticle Tracking Analysis 3.0 software. All samples were diluted in sterile PBS to a concentration of 1-10×10^8 particles/mL for analysis. Specific NTA settings were optimized for each sample, with fixed settings of temperature (23° C.), screen gain (1.0), infusion flow rate (5 μL/min), and camera level set at 12-14 depending on sample characteristics. Five videos were recorded for each sample (30-120 s video length) with all settings remaining constant within each sample source to minimize variation. […] The NTA unit was periodically evaluated for accuracy of size determination using polystyrene beads of known size (100 and 200 nm).
EV depletion and enzymatic digestion experiments: EV were isolated as described, resuspended in 5 ml PBS, and divided into 5 fractions of 1 ml each. […] The EV sediment was resuspended in PBS and particle numbers were quantified using nanoparticle tracking analysis (NTA) as described supra. […] The retentate was resuspended in 1 ml PBS, and particle content was evaluated by NTA. […] As well, WJ-MSC EV, EV (10^4:1 PBMC) from conditioned medium of non-MSC fibroblasts (canine left ventricular cardiac fibroblasts) were evaluated for suppression of PBMC.

## O=C(/C=C/c1ccc(/C=C/C(=O)Nc2ccc(C3=NCCN3)cc2)cc1)Nc1ccc(C2=NCCN2)cc1 [GW4869]
[1]; WJ-MSC pre-treated 48 hours at 6 μM, then across Transwell from PBMC with ConA, untreated WJ-MSC 28.2±1.4%
  T cell division with WJ-MSC pre-treated with EV-release inhibitor: 51.7±13.5%
[2]; increasing concentrations, n=3 WJ-MSC lines
  release of WJ-MSC-EV (particles released in 48 hours): decreased
[2]; increasing doses applied to WJ-MSC, 48 hours
  concentration giving maximal suppression of exosome output without unacceptable loss of viability: 5 to 10 µM

## NC(=O)c1ccc(-c2nc(-c3ccc4c(c3)OCO4)c(-c3ccccn3)[nH]2)cc1 [SB431542]
[1]; 72 h
  effect of co-added inhibitor on WJ-MSC EV mediated suppression of CD4+ T cell division: significantly reduced
[1]; Example 2, 10 μM SB431542 added to ConA+WJ-EV, ConA+WJ-EV alone 23±13%
  % CD4+ division: 52±17%

## Nc1nc(NCCc2ccc(O)cc2)nc2nc(-c3ccco3)nn12 [ZM241385]
[1]; 72 h
  effect of co-added inhibitor on WJ-MSC EV mediated suppression of CD4+ T cell division: significantly reduced

## IFN-γ: interferon-gamma used to pre-condition WJ-MSC
[1]; WJ-MSC pretreated with 500 ng IFN-γ for 48 hours
  further suppression by WJ-MSC or WJ-MSC EV after pre-conditioning of WJ-MSC: not statistically significant

## Triton-X
[1]; 0.1% Triton-X, 2 μg/ml RNAse A, proteinase K 30 min 37°C, heparinase 0.006 U/ml 3 hours, 10^4 EV:1 PBMC
  effect of pre-treating WJ-MSC EV on their suppression of CD4+ T cell division: completely abrogated

## soluble TGF-β1: recombinant human TGF-β1 (R&D Systems)
[1]; 5 ng/ml added to ConA stimulated PBMC
  suppression of mitogen driven T cell division by exogenous TGF-β: not
[1]; 10 ng/ml added to ConA stimulated PBMC
  suppression of mitogen driven T cell division by exogenous TGF-β: suppressed
[1]; 50 ng/ml added to ConA stimulated PBMC
  suppression of mitogen driven T cell division by exogenous TGF-β: suppressed
[1]; Example 2, ConA 5 μg/ml, 72 h, WJ-MSC 1:10 across transwell, WJ-EV 1:10^4, ConA alone 60±17%
  % CD4+ division (CD4+ cells that had undergone division): 21±10%
